Non-standard residues stand in square brackets, D forms with d. Residues, ends and D or L forms follow the SMILES beside them. Sta = CC(C)C[C@H](N)[C@@H](O)CC(=O)O
Legend:
human renin = target: T1, human renin (Homo sapiens, UniProt P00797); assay: renin inhibition, methods of the applicants' published European specification (0 045 665); type: biochemical; details: against human renin
T1 sequence (P00797 67-406): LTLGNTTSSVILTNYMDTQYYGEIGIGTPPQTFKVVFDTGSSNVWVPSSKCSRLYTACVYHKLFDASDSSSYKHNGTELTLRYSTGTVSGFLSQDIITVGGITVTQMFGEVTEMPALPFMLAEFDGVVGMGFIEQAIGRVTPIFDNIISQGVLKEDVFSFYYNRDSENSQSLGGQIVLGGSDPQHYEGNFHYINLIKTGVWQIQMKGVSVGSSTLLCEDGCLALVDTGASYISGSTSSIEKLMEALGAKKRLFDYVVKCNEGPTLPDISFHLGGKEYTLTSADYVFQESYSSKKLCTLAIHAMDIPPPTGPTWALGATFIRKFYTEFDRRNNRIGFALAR
Text: (§1) This compound is the subject of Example 1 below.

baboon renin = assay: renin inhibition, baboon renin; type: biochemical; details: against baboon renin; preliminary results
Text: as §1

Row | IC50 (human renin) [nM] | IC50 (human renin; preliminary results) [nM] | IC50 (baboon renin) [nM] | SMILES
1 | 16 | – | – | CC[C@H](C)[C@H](NC(=O)[C@@H](NC(=O)C[C@H](O)[C@H](CC(C)C)NC(=O)[C@H](Cc1c[nH]cn1)NC(=O)[C@H](Cc1ccccc1)NC(=O)[C@@H]1CCCN1C(=O)[C@@H](N)Cc1c[nH]cn1)C(C)C)C(=O)N[C@@H](Cc1c[nH]cn1)C(=O)O [Example 1] (H-HPFH[Sta]VIH-OH)
2 | – | 9 | 12 | CC[C@H](C)[C@H](NC(=O)[C@@H](NC(=O)C[C@H](O)[C@H](CC(C)C)NC(=O)[C@H](Cc1c[nH]cn1)NC(=O)[C@H](Cc1ccccc1)NC(=O)[C@@H]1CCCN1C(=O)[C@H](Cc1c[nH]cn1)NC(=O)[C@@H]1CCCN1)C(C)C)C(=O)N[C@@H](Cc1c[nH]cn1)C(=O)N[C@@H](CCCCN)C(=O)O [Example H-189] (H-PHPFH[Sta]VIHK-OH)

Source: patent EP0104041B1, “Enzyme inhibitors” (priority 1982, dated 1984)
